Experimental data reported in patent US20050119276A1, “Methods of treating inflammatory bowel disease using NF-kB inhibitors” (Wyeth, priority 2003, published 2005).

Experiments:
immature female rats = assay: Effect on uterine wet weights in immature female rats; type: in vivo, rat
Protocol: Animals were treated once per day by gavage for three days. Following euthanasia on day four (24 h after the last dose) the uteri were removed, stripped of remaining fat and mesentery and weighed. The dose of the compound of example 3 chosen (50 mg/kg) was 500 fold higher than the efficacious dose in the above experiments.

HLA-B27 rats [1] = assay: Stool character in the HLA rat standard pharmacological test procedure; type: in vivo
Protocol: (§1) A representative NF-kB selective ER ligand was evaluated in the HLA rat standard pharmacological test procedure, which emulates inflammatory bowel disease in humans. The following briefly describes the procedure used and results obtained. Male HLA-B27 rats were obtained from Taconic and provided unrestricted access to a food (PMI Lab diet 5001) and water. At the start of the study, rats were 22-26 weeks old.
(§2) Rats were dosed orally once per day for 5 days with one of the regimens listed below. There were five rats in each group and the last dose was administered two hours before euthanasia. • vehicle (50% DMSO/50% Dulbecco's PBS) • 17α-ethinyl-17β-estradiol (EE, 10 μg/kg) • Compound A (150 μg/kg) • Compound A (50 μg/kg) • Compound A (1.5 μg/kg) Stool quality was observed daily and graded according to the following scale: Diarrhea=3; soft stool=2; normal stool=1. At the end of the study, serum was collected and stored at −70° C. A section of colon was prepared for histological analysis and an additional segment was analyzed for myeloperoxidase activity.

HLA-B27 rats [2] = assay: Myeloperoxidase activity in colon of HLA-B27 rats (neutrophil infiltration); type: in vivo, rat
Protocol: as §1
Rats were dosed orally once per day for 5 days with one of the regimens listed below. […] A section of colon was prepared for histological analysis and an additional segment was analyzed for myeloperoxidase activity.
Myeloperoxidase activity [Bradley, et al., Blood 60: 618-622 (1982)]. Myeloperoxidase activity was assessed as a measure of neutrophil infiltration into the colon. […]
Tissue was resuspended and homogenized in 2.5ml (1:5 w/v) of 50 mM H2KPO4 with 10 mM EDTA and 0.5% Hex Ammonium Bromide to help solubilize the intracellular MPO. […] The supernatant was analyzed following these steps.
The test mixture was prepared by adding 2.9 ml of 50 mM H2KPO4 with 0.167 O-Dianisidine/ml with 0.0005% H2O2 into a reaction tube. […] OD was measured every 2 minutes reaction time at 460 nm against a blank containing 2.9 ml of the reaction mixture and 100 μl of the 0.5% ammonium bromide solution. […]

HLA-B27 rats [3] = assay: Histological scoring of disease severity in the colon of HLA-B27 rats; type: in vivo, rat; settings: for Fibrosis (0-2) / Inflammation (0-3) / Lesion depth (0-2) / Total score / Ulceration (0-2): histological score, colon
Protocol: as §1, §2
Histological analysis. Colonic tissue was immersed in 10% neutral buffered formalin. Each specimen of colon was separated into four samples for evaluation. The formalin-fixed tissues were processed in a Tissue Tek vacuum infiltration processor (Miles, Inc; West Haven, Conn.) for paraffin embedding. The samples were sectioned at 5 μm and then stained with hematoxylin and eosin (H&E) for blinded histologic evaluations using a scale modified after Boughton-Smith. Sections of colonic tissue were evaluated for several disease indicators and given relative scores. After the scores were completed the samples were unblinded, and data were tabulated and analyzed by ANOVA linear modeling with multiple mean comparisons.

[4] = 1.5 mcg/kg orally once per day for 5 days
[5] = 50 mcg/kg orally once per day for 5 days
[6] = 150 mcg/kg orally once per day for 5 days

For C#C[C@]1(O)CC[C@H]2[C@@H]3CCc4cc(O)ccc4[C@H]3CC[C@@]21C [17α-ethinylestradiol, 17α-ethinyl-17β-estradiol, reference compound], the Uterine wet weight (immature female rats; 1.5 μg/kg (EC80)) was “significantly stimulated”.
For CC1c2cc(F)ccc2-c2ccccc2N1S(=O)(=O)c1ccc(O)cc1 (centres unmarked) [Example 3, 4-[(8-Fluoro-6-methylphenanthridin-5(6H)-yl)sulfonyl]phenol], the Stool score (HLA-B27 rats [1]; 1.5 μg/kg oral) was “No effect”, the Stool score (HLA-B27 rats [1]; 50 μg/kg oral) was “No effect” and the Stool score (HLA-B27 rats [1]; 150 μg/kg oral, after 4 days of treatment) was “improvement in stool score”. For the same molecule, the “MPO activity in colon” value (HLA-B27 rats [2]; 150 μg/kg oral) was “effectively inhibit MPO activity”, the “MPO activity in colon” value (HLA-B27 rats [2]; the lower doses (50 and 1.5 μg/kg) oral) was “no effect” and the Uterine wet weight (immature female rats; 50 mg/kg orally once per day for three days) was “no increase”. For the same molecule, the melting point was 188 °C, the “All disease parameters measured (ulcerations, lesions, fibrosis, inflammatory cells), colon histology” value (HLA-B27 rats [3]; 50 μg/kg oral) was “significantly improved” and the “All disease parameters measured (ulcerations, lesions, fibrosis, inflammatory cells), colon histology” value (HLA-B27 rats [3]; 150 μg/kg oral) was “significantly improved”. For the same molecule, the “Fibrosis (0-2)” value (HLA-B27 rats [3]; [4]) was 0.94 ± 0.52, the “Inflammation (0-3)” value (HLA-B27 rats [3]; [4]) was 2.50 ± 0.35 and the “Lesion depth (0-2)” value (HLA-B27 rats [3]; [4]) was 1.1 ± 0.35. The Total score (HLA-B27 rats [3]; [4]) was 5.75 ± 1.41, the “Ulceration (0-2)” value (HLA-B27 rats [3]; [4]) was 1.25 ± 0.24 and the “Fibrosis (0-2)” value (HLA-B27 rats [3]; [5]) was 0.38 ± 0.32. The “Inflammation (0-3)” value (HLA-B27 rats [3]; [5]) was 1.69 ± 0.52, the “Lesion depth (0-2)” value (HLA-B27 rats [3]; [5]) was 0.56 ± 0.24 and the Total score (HLA-B27 rats [3]; [5]) was 3.25 ± 1.0. For the same molecule, the “Ulceration (0-2)” value (HLA-B27 rats [3]; [5]) was 0.63 ± 0.25, the “Fibrosis (0-2)” value (HLA-B27 rats [3]; [6]) was 0.19 ± 0.24 and the “Inflammation (0-3)” value (HLA-B27 rats [3]; [6]) was 1.50 ± 0.20. For the same molecule, the “Lesion depth (0-2)” value (HLA-B27 rats [3]; [6]) was 0.31 ± 0.24, the Total score (HLA-B27 rats [3]; [6]) was 2.38 ± 0.83 and the “Ulceration (0-2)” value (HLA-B27 rats [3]; [6]) was 0.38 ± 0.32.
Work on COc1cc(OC)cc(N2CCN(C(=O)[C@](C)(C#N)[C@H](c3ccccc3OC)c3cccc4ccccc34)CC2)c1 [Example 4, (S)-3-[4-(3,5-dimethoxyphenyl)piperazin-1-yl]-2-[(S)-(2-methoxyphenyl)(1-naphthyl)methyl]-2-methyl-3-oxopropanenitrile] yielded a melting point of 186 to 188 °C.
